Data taken from patent US20250092395A1, “A GLUN2D INHIBITOR FOR USE IN THE TREATMENT OR RELAPSE PREVENTION OF A DEPRESSIVE EPISODE” (priority 2022, published 2025).
“Also recorded” adds a separate entry of the source.

Experiments:
CDM mice = experiment: Nose-poke sucrose preference test in CDM mice; assay type: in vivo; conditions: CIQ or lorazepam applied prior to NAB-14
From the text: (§1) Behavioral Readout: After the treatment intervention, animals were either tested in an additional swim session (test day) to measure immobility time or tested in the InteliCage using the Nose-pokes sucrose preference test. For the assessment of the immobility time, mice were videotaped and two independent raters who were blinded to the experimental group analyzed the videos. Immobility time was defined as the cumulative time that the animals spend stationary with only enough movements of the tails or the forepaws to keep the head above the water surface. No distance is actively travelled except for passive floating, no directed movement of the front paws observed and the body of the animal mostly oriented parallel to the walls of the cylinder.
The IntelliCage system (TSE Systems) allows simultaneous analysis of spontaneous and exploratory behavior, activity pattern, and drinking preference of up to 16 group-housed mice implanted with radio-frequency identification (RFID) transponders. The unit consists of an open common space with 4 red shelters in the center and 4 recording corners. Mice have free access to food in the middle of the IntelliCage, water is available in the corners behind remote-controlled guillotine doors. Each corner is equipped with 2 drinking bottles and permits the visit of only one mouse at the same time. The scored parameters—the nosepokes toward the doors and the licks on the bottles—were monitored by a PC-based tracking software (IntelliCage Plus, TSE Systems). Initially, the mice were allowed to adapt to the IntelliCage for at least 7 days with water available ad libitum in all corners. Then for 3 days the animals were habituated to the sucrose taste: in each corner one of the bottles was filled with 1% sucrose solution and the other one with water. Both doors in the corner were open allowing free choice between the bottles. Next, a nosepoke adaptation period was carried out, where all doors were closed and the mice had to perform a nosepoke to open them. The opened door closes automatically after 5 s of drinking. In all tasks involving sucrose-filled bottles, the positions of the bottles were exchanged every 24 h. The Nosepoke SPT protocol was used (see Alboni et al.) for measurement of sucrose preference with gradually increasing effort (number of nosepokes) to reach the sucrose bottles for a short period of time (12 h). In this paradigm each door opens in response to a nosepoke and closes after 5 s licking. The number of nosepokes needed to open a door to a side with a sucrose containing bottle gradually increases (1, 2, 3, 4, 5, 6, 8, 10, 12, 16, 20, 24) after every 8 sucrose licking sessions. For each bottle the number of licks was recorded and the averaged sucrose preference was calculated as percentage of the total number of licks.

[1] = tested on: mice subjected to the chronic despair model (CDM); experiment: Chronic despair model (CDM) swim test, immobility time; assay type: in vivo; conditions: for immobility time of CDM mice treated with NAB-14, comedication: CIQ (10 mg/kg) or lorazepam (0,125 mg/kg) applied prior to NAB-14
Procedure: Induction phase: Mice were forced to swim in a glass cylinder (0 26 cm, 60 cm high) filled to 25 cm with 25° C. warm water for 10 min on 5 consecutive days. After the swimming, the animals were kept in their cages for two days before treatment and experiment readout was performed. The immobility time was measured in each session.
as §1

[2] = tested on: CA3-CA1 synapse in hippocampal brain slices of CDM mice; experiment: aLTP/aLTD inducibility in hippocampal brain slices of CDM mice after in vivo treatment; conditions: for LTP reestablishment by NAB-14, comedication / CDM-induced blockade of LTP inducibility (aLTP) / LTD inducibility (EPSP amplitude after aLTD protocol): CDM mice; for LTP reestablishment by NAB-14, comedication: CIQ or lorazepam injected 20 min prior to NAB-14; for CDM-induced blockade of LTP inducibility (aLTP): pretreatment; for LTD inducibility (EPSP amplitude after aLTD protocol): treatment after CDM
Procedure: Animals were preoxygenated in a 100% oxygen atmosphere for 5 min before cervical dislocation and decapitated according to national and institutional guidelines. Transverse 300 […] were cut from hippocampus with a Vibratome (VT1200, Leica, Japan). Slices were prepared in artificial cerebrospinal fluid (ACSF) containing (in mmol/I): 125 NaCl, 25 NaHCO3, 1.25 NaH2PO4, 2.5 KCL, 1 MgCl2, 27 Glucose, 2 CaCl2) bubbled with carbogen (95% O2, 5% CO2).
After 20 min resting time at 35° C., slices were kept at room temperature in aCSF and transferred into the recording chamber (volume approx. 2-3 ml) and continuously superfused with aCSF (rate approx. 5-10 ml/min-). Differential interference contrast video microscopy was used to identify location of CA1 pyramidal neurons (Zeiss Axioskop 2 FS plus, Zeiss Microscopy, Germany). Beside optical identification neurons were classified according to their characteristic firing frequency adaptation to long depolarising current pulses. Borosilicate glass tubes (2.0 mm outer diameter, 0.5 mm wall thickness; Hilgenberg, Germany) were used to pull patch pipettes. Pipettes with a resistance of 5-10 MΩ were used and series resistance of 10-50 MΩ was compensated by bridge balance. Patch pipettes were filled with an internal solution containing (in mM) for EPSP-measurements: 132K-gluconate, 20KCL, 2MgCl2, 10Hepes, 0.1EGTA, 4 Na2ATP, 0.3NaGTP. PH was adjusted to 7.2 with KOH. For current measurements: 135Csgluconate, 2CsCl, 5 QX314, 10 Hepes, 10EGTA, 2MgCl2, 2Na2ATP, 2TEACI, pH was adjusted to 7.2 with HCl. Osmolarity (280-300 mosmol/1) was controlled at the beginning of each experimental day with Osmomat (Gonotec GmbH, Germany).
A stimulation pipette (patch pipette with 1-3 MΩ resistance when filled with internal solution) was placed superficially in the stratum radiatum of the CA1 region in approximately […] distance to the pyramidal cell layer. Subthreshold excitatory postsynaptic potentials (EPSPs, 2 7 mV) were evoked by Schaffer collateral stimulation with voltage pulses of 10-80 V (frequency of 0.1 Hz, duration of 200 μs) using a stimulus isolator (Model 2100 Isolated pulse stimulator, Carlsborg, U.S.A.). Resting membrane potentials were between −75 and −65 mV and holding potential was −70 mV. 50 ms current test pulses (leading to 5-10 mV hyperpolarization) were applied to control input and series resistances after every 10th EPSP. EPSPs were combined with APs triggered by short (3 ms) current application of 900 pA via the patch-clamp electrode. EPC-10 amplifiers (HEKA, Germany) were used and signals were filtered at 5 kHz. Patchmaster NEXT software (Version 1.2, HEKA, Germany) was used for data acquisition and experiments were performed at room temperature.
aLTP: Five EPSPs and five postsynaptic APs were paired at 100 Hz with a 5 ms delay (AP after EPSP). Five of these bursts of synchronized EPSP→AP pairs were applied at theta frequency (5 Hz), followed by an interval of 10 sec and 4 more theta blocks, resulting in 125 EPSP/AP pairings.
aLTD: 360 postsynaptic APs were pared with 360 EPSPs with a delay of 20-30 ms between each AP/EPSP pairing at a frequency of 1 Hz. 1 Hz LTD: 600 EPSPs were elicited at a frequency of 1 Hz whilst CA1 pyramidal cell membrane potential was hold at −60 mV.
Long-term plasticity or molecular analyses were assessed as described above after the induction phase of the CDM and the specific treatment.
EPSP measurement: For baseline measurement, the mean amplitudes of 30 consecutive EPSPs before the induction protocol were calculated. 25 min after LTP induction the mean amplitude of 30 consecutive EPSPs was calculated and compared to the baseline of the same measurement. Changes of EPSP amplitudes were expressed as percentages of the baseline measurement and analysed for each experimental group applying a two-tailed Wilcoxon test. The differences between separate experimental groups were assessed using the Mann-Whitney test, not assuming normal distribution. […]

AMPAR and NMDAR currents = experiment: Control experiments: currents recorded at −80 mV and +40 mV; assay type: cell-based, mice; conditions: CNQX 10 μM; for currents recorded at −80 mV: then addition of DAPV 100 μM; for currents recorded at +40 mV: DAPV 100 μM
[3] = tested on: CA3-CA1 synapse, CA1 pyramidal neurons in hippocampal brain slices; experiment: LTP/LTD protocols and wash-in in brain slices of unstressed mice, substance in bathing solution; assay type: cell-based; conditions: hydrochloride; for LTP inducibility, associative LTP protocol (aLTP): unstressed mice, bath with picrotoxin, R,S-ketamine 10 μM, S-ketamine 5 μM
[4] = tested on: SOM-dependent feedback loop, CA1 PCs; experiment: Feedback loop-activating protocol (FLAP) in CA1 PCs; assay type: cell-based, mice
[5] = tested on: SOM-dependent feedback loop, CA1 PCs; experiment: as above; assay type: cell-based, mice; remark: listed apart in the source
Procedure: A 300 ms depolarizing current between +100 and +[…] was injected via the patch pipette into a PC to elicit a train of 5-10 APs. After an interval of 600 ms, one EPSP (5-10 mV amplitude) was elicited by Schaffer collateral stimulation. This pattern was continuously repeated at a frequency of 0.2 Hz. Substances were added by bath application after a stable 10 min baseline recording for an additional 20 min. For data analysis the maximum EPSP amplitudes from minutes 0-10 were averaged and compared to averaged maximum EPSP amplitudes from minutes 20-30.
The slope of the EPSP rise at 20% to 40% of its maximal amplitude, at which point an approximately linear increase in its voltage could be assumed, was fitted with Fitmaster software (HEKA, Germany). We analyzed 20 EPSPs before and 20 EPSPs 25-30 minutes after NAB-14 wash-in in the FLAP protocol for each experiment. The coefficient of variation (CV) is the standard deviation of the EPSP slopes divided by the mean. The inverse square of the CV of the postwash-in slopes was divided by the inverse square of the prewash-in slopes and plotted against the corresponding normalized slopes. Pre- and postwash-in measurements from a single experiment are connected by a line. In a standard quantal model for synaptic transmission, synaptic responses are affected either by presynaptic changes in the number of release sites and/or the probability of release or by modifications of the postsynaptic response to a single […]. A change in the ratio of CV-2 reflects a presynaptic action, whereas horizontal lines in the CV-2 plot indicate a change in postsynaptic responsiveness.

## COc1ccc(OCC2c3cc(OC)c(OC)cc3CCN2C(=O)c2cccc(Cl)c2)cc1 (stereo not drawn) [CIQ]
CDM mice
  sucrose preference of CDM mice treated with NAB-14, comedication: did not improve
[1]
  immobility time of CDM mice treated with NAB-14, comedication: did not improve; also recorded: blocked NAB-14 effects
[2]
  LTP reestablishment by NAB-14, comedication: abolishing LTP reestablishment; also recorded: blocked NAB-14 effects completely

## N#Cc1cc2c(cc1[N+](=O)[O-])=NC(=O)C(=O)N=2 [CNQX, 6-Cyano-7-nitroquinoxaline-2,3-dione]
AMPAR and NMDAR currents
  currents recorded at −80 mV: fully blocked
  currents recorded at +40 mV: only partially be reduced; also recorded: only partially influenced

## N[C@H](CCCP(=O)(O)O)C(=O)O [DAPV, D-(−)-2-Amino-5-phosphonopentanoic acid]
AMPAR and NMDAR currents
  currents recorded at −80 mV: did not significantly change; also recorded: did not have further effects
  currents recorded at +40 mV: full blockade; also recorded: fully blocked

## N[C@@]1(c2ccccc2Cl)CCC[C@@H](O)C1=O [HNK, 2R,6R Hydroxynorketamine]
[2]
  CDM-induced blockade of LTP inducibility (aLTP): neither HNK nor mGluR2 antagonist 1 treatment did change this blockade
  LTD inducibility (EPSP amplitude after aLTD protocol): abolishes this reduction of amplitude; also recorded: completely blocked the LTD inducibility
[2]; treatment prior to swim sessions (before CDM), male and female mice
  EPSP amplitude after aLTD: complete revers of EPSP amplitudes

## COc1ccc2nc(/C=C/c3cccc([N+](=O)[O-])c3)n(-c3ccc(C(=O)O)cc3)c(=O)c2c1 [QNZ46, 4-[6-Methoxy-2-[(1E)-2-(3-nitrophenyl)ethenyl]-4-oxo-3(4H)-quinazolinyl]-Benzoic acid]
[1]; CDM mice, 7 mg/kg i.p. two hours before behavioral readout, n=10
  immobility time: significantly reduced

## CN[C@]1(c2ccccc2Cl)CCCCC1=O.Cl [S-ketamine, S-Ketamine hydrochloride]
[3]
  EPSP amplitude after associative LTD protocol (aLTD, NMDAR-independent): unaffected; also recorded: neither R,S-ketamine (10 μM) nor S-ketamine (5 μM) had an effect
  LTD inducibility, non-associative 1 Hz LTD protocol (NMDAR-dependent): fully blocked; also recorded: abolished
  LTP inducibility, non-associative 100 Hz LTP protocol: significant blockade of inducibility of LTP
  aLTP induction: neither K nor SK blocked aLTP induction; also recorded: not affected
  LTP inducibility, associative LTP protocol (aLTP): significant blockade of inducibility of LTP
[3]; listed as SK
  LTP inducibility, associative LTP protocol (aLTP): complete inhibition of LTP

## CN1C(=O)CN=C(c2ccccc2)c2cc(Cl)ccc21 [diazepam]
[4]
  EPSP amplitude in the absence of AP bursts: neither NAB14 nor diazepam wash-in significantly altered the EPSP amplitude; also recorded: no significant pre/post changes
[5]
  NAB-14-induced increase in EPSP amplitude in FLAP, in presence of diazepam: abolished; also recorded: prevented

## O=C1Nc2ccc(Cl)cc2C(c2ccccc2Cl)=NC1O (stereo not drawn) [lorazepam]
CDM mice
  sucrose preference of CDM mice treated with NAB-14, comedication: did not improve
[1]
  immobility time of CDM mice treated with NAB-14, comedication: did not improve
[1]; listed as Lorazepam
  immobility time of CDM mice treated with NAB-14, comedication: blocked NAB-14 effects
[2]
  LTP reestablishment by NAB-14, comedication: abolishing LTP reestablishment
[2]; listed as Lorazepam
  LTP reestablishment by NAB-14, comedication: blocked NAB-14 effects completely
[2]; control and CDM condition
  LTP inducibility, lorazepam alone: did block LTP inducibility

## NC(=O)c1cc(-c2ccc(F)cc2)c2ccc(CN3C(=O)CCC3=O)cc2n1 [mGluR2 antagonist 1, 7-[(2,5-dioxopyrrolidin-1-yl)methyl]-4-(4-fluorophenyl)quinoline-2-carboxamide]
[2]
  CDM-induced blockade of LTP inducibility (aLTP): neither HNK nor mGluR2 antagonist 1 treatment did change this blockade
  LTD inducibility (EPSP amplitude after aLTD protocol): abolishes this reduction of amplitude; also recorded: completely blocked the LTD inducibility
